# Test results as given in ChEMBL document CHEMBL3351293, “Design, synthesis and in vitro evaluation of novel uni- and bivalent ligands for the cannabinoid receptor type 1 with variation of spacer length and structure” (Bioorg Med Chem Lett, 2014).
# Columns and labels:
# Cannabinoid receptor 2 = Cannabinoid receptor 2 (Homo sapiens, UniProt P34972); experiment: Displacement of [3H] CP-55,940 from human CB2 receptor expressed in HEK cells at 10 uM after 3 hrs by scintillation counting; type: cell-based; settings: for inhibition: HEK293
# Sequence of Cannabinoid receptor 2 (P34972 whole entry): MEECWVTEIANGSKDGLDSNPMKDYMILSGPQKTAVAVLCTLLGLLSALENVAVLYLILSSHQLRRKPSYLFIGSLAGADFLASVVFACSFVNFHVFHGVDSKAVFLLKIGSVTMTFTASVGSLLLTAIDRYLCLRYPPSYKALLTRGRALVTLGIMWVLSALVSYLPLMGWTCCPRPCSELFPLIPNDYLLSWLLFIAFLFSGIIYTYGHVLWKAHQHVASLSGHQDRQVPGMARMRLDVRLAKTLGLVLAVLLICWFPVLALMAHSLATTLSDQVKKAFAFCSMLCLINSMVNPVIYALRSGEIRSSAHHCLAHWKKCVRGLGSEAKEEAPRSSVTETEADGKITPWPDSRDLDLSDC
# Cannabinoid receptor 1 [1] = biological target: T1, Cannabinoid receptor 1 (Homo sapiens, UniProt P21554); experiment: Inverse agonist activity at human CB1 receptor expressed in Sf9 cells coexpressing Gbeta1gamma2 and RSG4 assessed as degradation of [gamma-33P]GTP after 20 mins by steady-state GTPase assay; type: cell-based
# T1 sequence (P21554 whole entry): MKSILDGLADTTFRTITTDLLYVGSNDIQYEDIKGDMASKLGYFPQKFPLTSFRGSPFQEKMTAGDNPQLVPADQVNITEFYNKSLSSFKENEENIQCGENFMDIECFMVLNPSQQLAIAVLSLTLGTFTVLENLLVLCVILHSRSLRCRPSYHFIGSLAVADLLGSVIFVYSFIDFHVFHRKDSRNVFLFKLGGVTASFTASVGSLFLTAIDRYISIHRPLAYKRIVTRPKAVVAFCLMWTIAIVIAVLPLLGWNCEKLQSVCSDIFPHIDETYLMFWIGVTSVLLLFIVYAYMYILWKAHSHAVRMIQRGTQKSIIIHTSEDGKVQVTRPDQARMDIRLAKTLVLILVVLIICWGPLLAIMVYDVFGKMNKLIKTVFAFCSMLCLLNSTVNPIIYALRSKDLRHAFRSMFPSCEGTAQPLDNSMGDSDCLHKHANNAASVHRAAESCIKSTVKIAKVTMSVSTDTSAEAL
# Cannabinoid receptor 1 [2] = biological target: T1, Cannabinoid receptor 1; settings: Sf9, at 30 µM
# Description: Inverse agonist activity at human CB1 receptor expressed in Sf9 cells coexpressing Gbeta1gamma2 and RSG4 assessed as degradation of [gamma-33P]GTP at 30 uM after 20 mins by steady-state GTPase assay relative to control
# Cannabinoid receptor 1 [3] = biological target: T1, Cannabinoid receptor 1; settings: Sf9, 30 uM
# Description: Agonist activity at human CB1 receptor expressed in Sf9 cells coexpressing Gbeta1gamma2 and RSG4 assessed as degradation of [gamma-33P]GTP at 30 uM after 20 mins by steady-state GTPase assay relative to control
Structure (SMILES),inhibition (Cannabinoid receptor 2) [%],EC50 (Cannabinoid receptor 1 [1]) [µM],Emax (Cannabinoid receptor 1 [2]) [%],Ki (Cannabinoid receptor 2) [µM],Emax (Cannabinoid receptor 1 [3]) [%]
Cc1c(C(=O)NCCCCCCCCNC(=O)[C@@H]2CCC[C@H](C(=O)NCCCCCCCCNC(=O)c3nn(-c4ccc(Cl)cc4Cl)c(-c4ccc(Cl)cc4)c3C)C2)nn(-c2ccc(Cl)cc2Cl)c1-c1ccc(Cl)cc1,10.3,3.16,33.6,,
Cc1c(C(=O)NCCCCNC(=O)c2ccccc2)nn(-c2ccc(Cl)cc2Cl)c1-c1ccc(Cl)cc1,25.8,0.776,94,,
Cc1c(C(=O)NCCCCNC(=O)c2ccc(C(=O)NCCCCNC(=O)c3nn(-c4ccc(Cl)cc4Cl)c(-c4ccc(Cl)cc4)c3C)cc2)nn(-c2ccc(Cl)cc2Cl)c1-c1ccc(Cl)cc1,24.3,15,50.2,,
Cc1c(C(=O)NCCCCCCNC(=O)c2cccc(C(=O)NCCNC(=O)c3nn(-c4ccc(Cl)cc4Cl)c(-c4ccc(Cl)cc4)c3C)c2)nn(-c2ccc(Cl)cc2Cl)c1-c1ccc(Cl)cc1,3.2,,43.6,,
Cc1c(C(=O)NCCCCCCCNCCCCCCCNC(=O)c2nn(-c3ccc(Cl)cc3Cl)c(-c3ccc(Cl)cc3)c2C)nn(-c2ccc(Cl)cc2Cl)c1-c1ccc(Cl)cc1,34.4,0.871,89.2,,
Cc1c(C(=O)NCCCCNCc2ccccc2)nn(-c2ccc(Cl)cc2Cl)c1-c1ccc(Cl)cc1,85.4,0.661,92.5,12.7,
Cc1c(C(=O)NCCCCNC(=O)[C@H]2CCCC[C@@H]2C(=O)NCCCCNC(=O)c2nn(-c3ccc(Cl)cc3Cl)c(-c3ccc(Cl)cc3)c2C)nn(-c2ccc(Cl)cc2Cl)c1-c1ccc(Cl)cc1 (relative stereo),14.6,10.5,58.4,,
Cc1c(C(=O)NCCCCCCCCNC(=O)c2ccc(C(=O)NCCCCCCCCNC(=O)c3nn(-c4ccc(Cl)cc4Cl)c(-c4ccc(Cl)cc4)c3C)cc2)nn(-c2ccc(Cl)cc2Cl)c1-c1ccc(Cl)cc1,9.7,40.7,29.3,,
Cc1c(C(=O)NCCCCNC(=O)[C@@H]2CCC[C@@H](C(=O)NCCCCNC(=O)c3nn(-c4ccc(Cl)cc4Cl)c(-c4ccc(Cl)cc4)c3C)C2)nn(-c2ccc(Cl)cc2Cl)c1-c1ccc(Cl)cc1 (relative stereo),41.1,8.55,63,,
Cc1c(C(=O)NCCCCN)nn(-c2ccc(Cl)cc2Cl)c1-c1ccc(Cl)cc1,31.8,2.82,86.9,,
Cc1c(C(=O)NCCCCCCCCNC(=O)[C@H]2CCCC[C@@H]2C(=O)NCCCCCCCCNC(=O)c2nn(-c3ccc(Cl)cc3Cl)c(-c3ccc(Cl)cc3)c2C)nn(-c2ccc(Cl)cc2Cl)c1-c1ccc(Cl)cc1 (relative stereo),10.5,,14.3,,
Cc1c(C(=O)NCCCCNCc2ccc(CNCCCCNC(=O)c3nn(-c4ccc(Cl)cc4Cl)c(-c4ccc(Cl)cc4)c3C)cc2)nn(-c2ccc(Cl)cc2Cl)c1-c1ccc(Cl)cc1,102,2.95,93.2,2.4,
Cc1c(C(=O)NCCCCNCc2ccc(C(=O)NCCCCNC(=O)c3nn(-c4ccc(Cl)cc4Cl)c(-c4ccc(Cl)cc4)c3C)cc2)nn(-c2ccc(Cl)cc2Cl)c1-c1ccc(Cl)cc1,23,1.91,67.4,,
CCCCCCC(C)(C)c1ccc([C@@H]2C[C@H](O)CC[C@H]2CCCO)c(O)c1,,,,,67.4
Cc1c(C(=O)NCCCCCCCCNC(=O)[C@H]2CC[C@H](C(=O)NCCCCCCCCNC(=O)c3nn(-c4ccc(Cl)cc4Cl)c(-c4ccc(Cl)cc4)c3C)CC2)nn(-c2ccc(Cl)cc2Cl)c1-c1ccc(Cl)cc1,14.5,9.55,38.8,,
Cc1c(C(=O)NCCCCNCc2cccc(CNCCCCNC(=O)c3nn(-c4ccc(Cl)cc4Cl)c(-c4ccc(Cl)cc4)c3C)c2)nn(-c2ccc(Cl)cc2Cl)c1-c1ccc(Cl)cc1,7,8.85,76.8,,
Cc1c(C(=O)NCCCCCCCCNC(=O)[C@H]2CC[C@@H](C(=O)NCCCCCCCCNC(=O)c3nn(-c4ccc(Cl)cc4Cl)c(-c4ccc(Cl)cc4)c3C)CC2)nn(-c2ccc(Cl)cc2Cl)c1-c1ccc(Cl)cc1,27.3,8.71,62.4,,

Structure (SMILES),inhibition (Cannabinoid receptor 2) [%],EC50 (Cannabinoid receptor 1 [1]) [µM],Emax (Cannabinoid receptor 1 [2]) [%],Ki (Cannabinoid receptor 2) [µM],Emax (Cannabinoid receptor 1 [3]) [%]
Cc1c(C(=O)NCCCCCCCN(CCCCCCCNC(=O)c2nn(-c3ccc(Cl)cc3Cl)c(-c3ccc(Cl)cc3)c2C)Cc2ccccc2)nn(-c2ccc(Cl)cc2Cl)c1-c1ccc(Cl)cc1,22.6,3.85,67.5,,
Cc1c(C(=O)NCCCCNC(=O)[C@@H]2CCC[C@H](C(=O)NCCCCNC(=O)c3nn(-c4ccc(Cl)cc4Cl)c(-c4ccc(Cl)cc4)c3C)C2)nn(-c2ccc(Cl)cc2Cl)c1-c1ccc(Cl)cc1,19.8,24.3,38.2,,
Cc1c(C(=O)NCCCCCCCCNC(=O)C2CCCCC2)nn(-c2ccc(Cl)cc2Cl)c1-c1ccc(Cl)cc1,20.2,1.1,78.8,,
Cc1c(C(=O)NCCCCNCc2cccc(C(=O)NCCCCNC(=O)c3nn(-c4ccc(Cl)cc4Cl)c(-c4ccc(Cl)cc4)c3C)c2)nn(-c2ccc(Cl)cc2Cl)c1-c1ccc(Cl)cc1,15.3,1.62,78.1,,
Cc1c(C(=O)NCCCCNC(=O)C2CCCCC2)nn(-c2ccc(Cl)cc2Cl)c1-c1ccc(Cl)cc1,24.1,0.11,91.5,,
Cc1c(C(=O)NCCCCCCCCNCc2ccccc2)nn(-c2ccc(Cl)cc2Cl)c1-c1ccc(Cl)cc1,93.9,0.123,93.8,31,
Cc1c(C(=O)NCCCCCCCCNC(=O)C23CC4CC(C2)CC(C(=O)NCCCCCCCCNC(=O)c2nn(-c5ccc(Cl)cc5Cl)c(-c5ccc(Cl)cc5)c2C)(C4)C3)nn(-c2ccc(Cl)cc2Cl)c1-c1ccc(Cl)cc1,4.1,7.24,34.7,,
Cc1c(C(=O)NCCCCCCCCNC(=O)c2cccc(C(=O)NCCCCCCCCNC(=O)c3nn(-c4ccc(Cl)cc4Cl)c(-c4ccc(Cl)cc4)c3C)c2)nn(-c2ccc(Cl)cc2Cl)c1-c1ccc(Cl)cc1,29.1,13.5,59.1,,
Cc1c(C(=O)NN2CCCCC2)nn(-c2ccc(Cl)cc2Cl)c1-c1ccc(I)cc1,,,100,,
Cc1c(C(=O)NCCCCCCCCNC(=O)c2ccccc2)nn(-c2ccc(Cl)cc2Cl)c1-c1ccc(Cl)cc1,21.4,0.501,80.2,,
Cc1c(C(=O)NCCCCCCCCN)nn(-c2ccc(Cl)cc2Cl)c1-c1ccc(Cl)cc1,9.5,0.112,92.8,,
Cc1c(C(=O)NCCCCCCCCNC(=O)[C@@H]2CCC[C@@H](C(=O)NCCCCCCCCNC(=O)c3nn(-c4ccc(Cl)cc4Cl)c(-c4ccc(Cl)cc4)c3C)C2)nn(-c2ccc(Cl)cc2Cl)c1-c1ccc(Cl)cc1,18.8,7.6,45.5,,
Cc1c(C(=O)NCCCCNC(=O)C23CC4CC(C2)CC(C(=O)NCCCCNC(=O)c2nn(-c5ccc(Cl)cc5Cl)c(-c5ccc(Cl)cc5)c2C)(C4)C3)nn(-c2ccc(Cl)cc2Cl)c1-c1ccc(Cl)cc1,15.8,16.2,66.4,,
Cc1c(C(=O)NCCCCNC(=O)c2cccc(C(=O)NCCCCNC(=O)c3nn(-c4ccc(Cl)cc4Cl)c(-c4ccc(Cl)cc4)c3C)c2)nn(-c2ccc(Cl)cc2Cl)c1-c1ccc(Cl)cc1,0,,19.5,,
Cc1c(C(=O)NCCCCNC(=O)[C@H]2CC[C@H](C(=O)NCCCCNC(=O)c3nn(-c4ccc(Cl)cc4Cl)c(-c4ccc(Cl)cc4)c3C)CC2)nn(-c2ccc(Cl)cc2Cl)c1-c1ccc(Cl)cc1,17.6,,,,
Cc1c(C(=O)NN2CCCCC2)nn(-c2ccc(Cl)cc2Cl)c1-c1ccc(Cl)cc1,9,,,,
Cc1c(C(=O)NCCCCNC(=O)[C@H]2CC[C@@H](C(=O)NCCCCNC(=O)c3nn(-c4ccc(Cl)cc4Cl)c(-c4ccc(Cl)cc4)c3C)CC2)nn(-c2ccc(Cl)cc2Cl)c1-c1ccc(Cl)cc1,25.9,9.66,61.9,,
